Values of other authors, collected in patent US7217681B2, “Pesticidal composition and method for fungal control” (Syngenta Crop Protection, Inc., priority 2004, dated 2007).

System: fungi
Conditions: reported by Burg et al., Ivermectin and Abamectin, 1989

## abamectin
  anti-bacterial or antifungal activity: no anti-bacterial or antifungal activity
